PubChem BioAssay (NCI)
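Method: 48-hour compound exposure of cells in 96-well plates, five concentrations, linear interpolation of endpoints. GI50: concentration for 50% inhibition of growth. TGI is the concentration that stops growth completely.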

Assays:
Test in all cases: NCI-60 cell line screen, 48 h
[1] = test system: PC-3 prostate
[2] = test system: CAKI-1 renal
[3] = test system: NCI-H226 lung
[4] = test system: NCI-H522 lung
[5] = test system: IGROV1 ovarian
[6] = test system: OVCAR-4 ovarian
[7] = test system: RPMI-8226 leukemia
[8] = test system: HS 578T breast
[9] = test system: HCT-116 colon
[10] = test system: EKVX NSCLC
[11] = test system: SR leukemia
[12] = test system: SK-MEL-5 melanoma
[13] = test system: SNB-19 CNS
[14] = test system: CCRF-CEM leukemia
[15] = test system: SF-268 CNS
[16] = test system: U251 CNS
[17] = test system: HOP-62 NSCLC
[18] = test system: SF-539 CNS
[19] = test system: NCI-H23 lung
[20] = test system: UACC-257 melanoma
[21] = test system: HCC-2998 colon
[22] = test system: T-47D breast
[23] = test system: TK-10 renal
[24] = test system: OVCAR-8 ovarian
[25] = test system: SK-MEL-2 melanoma
[26] = test system: MDA-MB-435
[27] = test system: SW-620 colon
[28] = test system: SK-MEL-28 melanoma
[29] = test system: A498 renal
[30] = test system: UO-31 renal
[31] = test system: DU-145 prostate
[32] = test system: M14 melanoma
[33] = test system: MALME-3M melanoma
[34] = test system: K-562 leukemia
[35] = test system: KM12 colon
[36] = test system: HT29 colon
[37] = test system: NCI-H460 lung
[38] = test system: ACHN renal
[39] = test system: NCI/ADR-RES ovarian
[40] = test system: SK-OV-3 ovarian
[41] = test system: SF-295 CNS
[42] = test system: UACC-62 melanoma
[43] = test system: OVCAR-5 ovarian
[44] = test system: SN12C renal
[45] = test system: HOP-92 NSCLC
[46] = test system: MOLT-4 leukemia
[47] = test system: SNB-75 CNS
[48] = test system: COLO 205 colon
[49] = test system: BT-549 breast
[50] = test system: MCF7 breast
[51] = test system: 786-0 renal
[52] = test system: HL-60(TB) leukemia
[53] = test system: HCT-15 colon
[54] = test system: MDA-MB-231 breast
[55] = test system: A549 NSCLC
[56] = test system: RXF 393 renal

## O=C(Nc1cccc(C(F)(F)F)c1)c1cc(-c2ccc(F)cc2F)ccc1O
[1]
  GI50: 2890 nM
  TGI: 15100 nM
[2]
  GI50: 1790 nM
  TGI: 5690 nM
[3]
  GI50: 2010 nM
  TGI: 5340 nM
[4]
  GI50: 1320 nM
  TGI: 9580 nM
[5]
  GI50: 2820 nM
  TGI: 17000 nM
[6]
  GI50: 3110 nM
  TGI: 95700 nM
[7]
  GI50: 1440 nM
  TGI: 5280 nM
[8]
  GI50: 2470 nM
  TGI: 9630 nM
[9]
  GI50: 1890 nM
  TGI: 4980 nM
[10]
  GI50: 2280 nM
  TGI: 8980 nM
[11]
  GI50: 2760 nM
  TGI: 14000 nM
[12]
  GI50: 1250 nM
  TGI: 2860 nM
[13]
  GI50: 3080 nM
  TGI: 73500 nM
[14]
  GI50: 2970 nM
  TGI: 48600 nM
[15]
  GI50: 2670 nM
  TGI: 16700 nM
[16]
  GI50: 2990 nM
  TGI: 17500 nM
[17]
  GI50: 2930 nM
  TGI: 9310 nM
[18]
  GI50: 3050 nM
  TGI: 11000 nM
[19]
  GI50: 1890 nM
  TGI: 5580 nM
[20]
  GI50: 1500 nM
  TGI: 6970 nM
[21]
  GI50: 3070 nM
  TGI: 13200 nM
[22]
  GI50: 2200 nM
  TGI: 8640 nM
[23]
  GI50: 4550 nM
  TGI: 30500 nM
[24]
  GI50: 2920 nM
  TGI: > 100000 nM
[25]
  GI50: 1460 nM
  TGI: 4950 nM
[26]
  GI50: 2500 nM
  TGI: 7110 nM
[27]
  GI50: 3610 nM
  TGI: 14500 nM
[28]
  GI50: 2170 nM
  TGI: 7580 nM
[29]
  GI50: 923 nM
  TGI: 3210 nM
[30]
  GI50: 2460 nM
  TGI: 10600 nM
[31]
  GI50: 3550 nM
  TGI: > 100000 nM
[32]
  GI50: 3020 nM
  TGI: 10500 nM
[33]
  GI50: 1770 nM
  TGI: 4650 nM
[34]
  GI50: 2230 nM
  TGI: > 100000 nM
[35]
  GI50: 2440 nM
  TGI: 6120 nM
[36]
  GI50: 3270 nM
  TGI: 16900 nM
[37]
  GI50: 2670 nM
  TGI: 13300 nM
[38]
  GI50: 2760 nM
  TGI: 8670 nM
[39]
  GI50: 2570 nM
  TGI: 8630 nM
[40]
  GI50: 2430 nM
  TGI: 8620 nM
[41]
  GI50: 1750 nM
  TGI: 3570 nM
[42]
  GI50: 1160 nM
  TGI: 4220 nM
[43]
  GI50: 3410 nM
  TGI: 26400 nM
[44]
  GI50: 1990 nM
  TGI: 7610 nM
[45]
  GI50: 824 nM
  TGI: 4280 nM
[46]
  GI50: 2130 nM
  TGI: 5580 nM
[47]
  GI50: 1520 nM
  TGI: 4250 nM
[48]
  GI50: 3220 nM
  TGI: 10200 nM
[49]
  GI50: 2130 nM
  TGI: 7240 nM
[50]
  GI50: 2180 nM
  TGI: 9290 nM
[51]
  GI50: 3270 nM
  TGI: 12000 nM
[52]
  GI50: 2060 nM
  TGI: 4970 nM
[53]
  GI50: 2210 nM
  TGI: 6990 nM
[54]
  GI50: 2010 nM
  TGI: 5170 nM
[55]
  GI50: 3260 nM
  TGI: > 100000 nM
[56]
  GI50: 2060 nM
  TGI: 6220 nM

## C#C[C@]1(O)CC[C@H]2[C@@H]3CC=C4c5sc(Nc6cc(Cl)ccn6)nc5CC[C@]4(C)[C@H]3CC[C@@]21C
[1]
  GI50: 386 nM
  TGI: 3640 nM
[2]
  GI50: 725 nM
  TGI: 2200 nM
[3]
  GI50: 2140 nM
  TGI: 9840 nM
[4]
  GI50: 1830 nM
  TGI: 4080 nM
[5]
  GI50: 1780 nM
  TGI: > 21200 nM
[6]
  GI50: 2800 nM
  TGI: > 26200 nM
[7]
  GI50: 212 nM
  TGI: 749 nM
[8]
  GI50: 278 nM
  TGI: 1170 nM
[9]
  GI50: 784 nM
  TGI: 2350 nM
[10]
  GI50: 1080 nM
  TGI: 4790 nM
[11]
  GI50: 308 nM
  TGI: 1380 nM
[12]
  GI50: 1740 nM
  TGI: 3320 nM
[13]
  GI50: 1230 nM
[14]
  GI50: 463 nM
  TGI: > 22500 nM
[15]
  GI50: 1450 nM
  TGI: 4550 nM
[16]
  GI50: 425 nM
  TGI: 1670 nM
[17]
  GI50: 759 nM
  TGI: 2670 nM
[18]
  GI50: 214 nM
  TGI: 741 nM
[19]
  GI50: 1350 nM
  TGI: 4710 nM
[20]
  GI50: 727 nM
  TGI: 2200 nM
[21]
  GI50: 2190 nM
  TGI: 5520 nM
[22]
  GI50: 2440 nM
  TGI: > 26300 nM
[23]
  GI50: 2210 nM
  TGI: 11400 nM
[24]
  GI50: 1400 nM
  TGI: 3190 nM
[25]
  GI50: 1430 nM
  TGI: 3950 nM
[26]
  GI50: 1060 nM
  TGI: 3090 nM
[27]
  GI50: 1090 nM
  TGI: 2680 nM
[28]
  GI50: 317 nM
  TGI: 1100 nM
[29]
  GI50: 828 nM
  TGI: 2280 nM
[30]
  GI50: 383 nM
  TGI: 1610 nM
[31]
  GI50: 2530 nM
  TGI: > 100000 nM
[32]
  GI50: 736 nM
  TGI: 2270 nM
[33]
  GI50: 663 nM
  TGI: 2100 nM
[34]
  GI50: 366 nM
  TGI: 2450 nM
[35]
  GI50: 1630 nM
  TGI: 8590 nM
[36]
  GI50: 1420 nM
  TGI: 3150 nM
[37]
  GI50: 922 nM
  TGI: 2670 nM
[38]
  GI50: 834 nM
[39]
  GI50: 1950 nM
  TGI: 6650 nM
[40]
  GI50: 663 nM
  TGI: 2170 nM
[42]
  GI50: 846 nM
  TGI: 3900 nM
[43]
  GI50: 2140 nM
  TGI: > 20400 nM
[44]
  GI50: 3360 nM
  TGI: > 100000 nM
[45]
  GI50: 1530 nM
  TGI: 3370 nM
[46]
  GI50: 321 nM
  TGI: 1950 nM
[47]
  GI50: 637 nM
[48]
  GI50: 1660 nM
  TGI: 3420 nM
[49]
  GI50: 627 nM
  TGI: 2360 nM
[50]
  GI50: 516 nM
  TGI: 3430 nM
[51]
  GI50: 227 nM
  TGI: 594 nM
[52]
  GI50: 402 nM
  TGI: 2070 nM
[53]
  GI50: 1010 nM
  TGI: 4880 nM
[54]
  GI50: 1580 nM
  TGI: 4610 nM
[55]
  GI50: 1180 nM
  TGI: 2610 nM
[56]
  GI50: 124 nM
  TGI: 380 nM
